# Assay results as given in patent US9845295B2, “Triphenylethylene compounds and uses thereof” (Purdue Research Foundation, priority 2015, dated 2017).
# What was measured:
# [1] = tested on: progesterone receptor (PGR) mRNA expression in MCF-7 human breast cancer cells; test: Antagonism of β-estradiol-stimulated progesterone receptor (PGR) mRNA expression in MCF-7 cells; assay type: cell-based; details: 1 μM compound, 24 h, 10 nM E2 alone set as 100%
# Protocol: To investigate the effects of ligand binding on ER-mediated transcriptional activities, the triphenylethylene bisphenols were tested for their abilities to antagonize β-estradiol (E2) in a functional assay. […] In this commonly used assay, the progesterone receptor (PGR) mRNA expression is used for assessing estrogenic or antiestrogenic activity in MCF-7 human breast cancer cells. […] The PGR mRNA expression level with 10 nM E2 stimulation alone was set as 100%, and the antiestrogenic effects of the compounds was monitored by the reduction of β-estradiol-stimulated mRNA levels.
# Cell Culture and Test Compound Treatment. […]
# The MCF-7 cells treated with test compounds or experimental controls for 24 h were harvested for progesterone receptor (PGR) messenger ribonucleic acid (mRNA) extraction. […] The RNA concentration was measured using the Qubit RNA BR assay (Life Technologies Corp., Carlsbad, Calif.) for the Qubit 2.0 fluorometer (Life Technologies Corp., Carlsbad, Calif.). […]
# Complementary deoxyribonucleic acid (cDNA) for the real-time quantitative polymerase chain reaction (PCR) assay was synthesized from DNase-treated total RNA using the QuantiTect reverse transcription kit (QiagenInc., Valencia, Calif., USA).
# Real-Time Quantitative Polymerase Chain Reaction (PCR) for cDNA. […]
# [2] = target: T1, recombinant human aromatase (CYP19) (Homo sapiens, UniProt P11511); test: Inhibition of recombinant human aromatase (CYP19) by microsomal incubations (MFC fluorometric substrate); assay type: biochemical
# T1 construct: purchased BD Biosciences (San Jose, Calif.)
# T1 sequence (P11511 1-503): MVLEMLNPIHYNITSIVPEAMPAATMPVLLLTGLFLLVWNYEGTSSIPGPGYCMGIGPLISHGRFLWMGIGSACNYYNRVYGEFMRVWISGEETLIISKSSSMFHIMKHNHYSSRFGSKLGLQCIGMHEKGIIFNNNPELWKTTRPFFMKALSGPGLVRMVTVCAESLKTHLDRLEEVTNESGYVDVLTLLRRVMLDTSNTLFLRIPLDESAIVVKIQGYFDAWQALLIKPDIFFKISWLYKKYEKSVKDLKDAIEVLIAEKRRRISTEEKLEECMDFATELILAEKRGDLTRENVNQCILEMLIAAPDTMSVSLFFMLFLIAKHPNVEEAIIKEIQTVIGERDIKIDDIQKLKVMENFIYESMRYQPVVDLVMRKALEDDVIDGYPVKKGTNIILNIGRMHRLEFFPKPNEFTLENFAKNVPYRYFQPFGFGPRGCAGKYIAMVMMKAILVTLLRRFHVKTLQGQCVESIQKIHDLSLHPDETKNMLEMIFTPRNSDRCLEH
# Protocol: Inhibition of Recombinant Human Aromatase (CYP19) by Microsomal Incubations.
# All tested samples were dissolved in either methanol or DMSO. […] All the reactions were stopped by adding 0.1 M tris base dissolved in acetonitrile (75 μL). […] The extent of enzyme inhibition was expressed as the percentage of remaining enzyme activity compared to the control.
# recombinant human ER-α = target: T2, recombinant human ER-α (Homo sapiens, UniProt P03372); test: Binding affinity for recombinant human ER-α (fluorescence polarization, ES2 displacement)
# T2 construct: purchased Invitrogen (Carlsbad, Calif.)
# T2 sequence (P03372 1-595): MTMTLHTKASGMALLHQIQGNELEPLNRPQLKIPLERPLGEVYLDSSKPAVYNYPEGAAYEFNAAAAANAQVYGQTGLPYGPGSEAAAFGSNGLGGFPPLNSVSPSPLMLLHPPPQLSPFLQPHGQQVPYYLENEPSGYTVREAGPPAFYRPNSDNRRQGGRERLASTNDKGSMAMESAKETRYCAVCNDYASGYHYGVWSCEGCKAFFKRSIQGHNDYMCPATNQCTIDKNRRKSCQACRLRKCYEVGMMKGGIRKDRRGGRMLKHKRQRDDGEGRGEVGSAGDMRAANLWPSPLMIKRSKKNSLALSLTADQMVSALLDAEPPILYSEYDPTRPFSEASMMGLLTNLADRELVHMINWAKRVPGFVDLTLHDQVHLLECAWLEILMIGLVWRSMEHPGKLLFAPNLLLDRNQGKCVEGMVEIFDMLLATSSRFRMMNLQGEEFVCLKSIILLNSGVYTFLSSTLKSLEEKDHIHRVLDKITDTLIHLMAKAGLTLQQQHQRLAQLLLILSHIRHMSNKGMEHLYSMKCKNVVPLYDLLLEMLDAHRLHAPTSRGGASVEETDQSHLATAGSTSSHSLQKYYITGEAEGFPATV
# Protocol: (§1) Binding Affinities for Recombinant Human ER-α and ER-β.
# (§2) The binding affinities of ER-α and ER-β were determined by measuring the change of polarization value when the fluorescent estrogen ligand, ES2, was displaced by the tested compounds. Experimental procedures were consistent with the protocol provided by Invitrogen. The fluorescent estrogen ligand, ES2, was provided in methanol/water (4:1, v/v) with the concentration of 1800 nM. Recombinant human ER-α and ER-β were provided in buffer (50 mM bis-tris propane, 400 mM KCl, 2 mM DTT, 1 mM EDTA and 10% glycerol), with the concentration of 734 nM and 3800 nM, respectively. All tested samples were dissolved in either methanol or DMSO. The sample solutions (1 pt) were mixed well with 49 pt of ES2 screening buffer (100 mM potassium phosphate, 100 μg/mL BGG and 0.02% NaN3). The ER-α/ES2 complex was prepared with the fluorescent estrogen ligand ES2, human recombinant ER and ES2 screening buffer with the concentrations of 9 nM ES2 and 30 nM ER-α. The ER-β/ES2 complex was prepared with the fluorescent estrogen ligand ES2, human recombinant ER-β and ES2 screening buffer with the concentrations of 9 nM ES2 and 20 nM ER-ft Reactions were initiated by adding ER/ES2 complex (50 μL) to bring the incubation volume to 100 μL and incubated for 2 h avoiding light. […] Excitation-emission wavelengths for fluorescence polarization were […]. The polarization values in the presence of the test competitors were compared with those in control, in which the competitor was replaced with vehicle. The extent of competition was expressed as the percentage of remaining polarization compared to the control.
# recombinant human ER-β = target: T3, recombinant human ER-β (Homo sapiens, UniProt Q92731); test: Binding affinity for recombinant human ER-β (fluorescence polarization, ES2 displacement); details: Table 1; determined only for compounds with >90% competition
# T3 construct: purchased Invitrogen (Carlsbad, Calif.)
# T3 sequence (Q92731 whole entry): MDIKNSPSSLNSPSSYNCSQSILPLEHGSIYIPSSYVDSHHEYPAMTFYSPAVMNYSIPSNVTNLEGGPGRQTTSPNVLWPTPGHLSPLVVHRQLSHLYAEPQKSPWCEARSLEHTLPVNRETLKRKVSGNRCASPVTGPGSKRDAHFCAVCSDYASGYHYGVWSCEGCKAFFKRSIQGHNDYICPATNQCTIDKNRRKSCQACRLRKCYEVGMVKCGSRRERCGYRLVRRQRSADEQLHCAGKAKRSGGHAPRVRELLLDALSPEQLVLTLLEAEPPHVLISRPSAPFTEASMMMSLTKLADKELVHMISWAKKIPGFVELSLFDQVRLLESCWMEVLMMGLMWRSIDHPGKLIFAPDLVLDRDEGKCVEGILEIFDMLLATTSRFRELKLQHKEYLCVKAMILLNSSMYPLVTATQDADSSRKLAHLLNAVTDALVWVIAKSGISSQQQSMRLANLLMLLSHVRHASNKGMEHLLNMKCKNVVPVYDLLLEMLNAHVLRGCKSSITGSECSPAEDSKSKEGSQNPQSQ
# Protocol: as §1, §2
# ER in MCF-7-2a cells = details: in words; cited from earlier work
# [3] = tested on: postmenopausal women with breast cancer; details: five-year ATAC trial; cited from earlier work
# [4] = Table 1, mean of at least three experiments
smiles,measurement,setting,value
"CC/C(=C(\c1ccc(O)cc1)c1ccc(OCCN)cc1)c1ccccc1 [(E,Z)-norendoxifen]",PGR mRNA expression level in the presence of 10 nM E2,[1],33%
"CCC(=C(c1ccc(O)cc1)c1ccc(O)cc1)c1ccccc1 [Compound 7, reference compound]",IC50,"[2]; Table 2, determined for compounds with inhibition higher than 90%",24900 ± 1400 nM
same,ER-α percent competition,"recombinant human ER-α; Table 2, at 100000 nM compound",80% competition
same,EC50,recombinant human ER-β,307 ± 106 nM
same,ER antagonism / agonism in MCF-7-2a cells,ER in MCF-7-2a cells,good ER antagonist without significant agonistic side effects
"Oc1ccc(C(=C(Cn2ccnc2)c2ccccc2)c2ccc(O)cc2)cc1 [Compound 12, 4,4′-(3-(1H-Imidazol-1-yl)-2-phenylprop-1-ene-1,1-diyl)diphenol]",IC50,[2]; [4],4.77 ± 0.38 nM
same,fold improvement/increase in aromatase inhibitory activity compared with 7,[2]; vs compound 7,> 5000 fold
same,EC50,"recombinant human ER-α; Table 1, determined only for compounds with >90% competition",27.3 nM
same,EC50,recombinant human ER-β,40.9 nM
same,melting point,,225 to 227 °C
"N#CCC(=C(c1ccc(O)cc1)c1ccc(O)cc1)c1ccc(N)cc1 [Compound 25, 3-(4-Aminophenyl)-4,4-bis(4-hydroxyphenyl)but-3-enenitrile]",IC50,[2]; [4],36.3 ± 0.8 nM
same,ER-α percent competition,"recombinant human ER-α; Table 1, at 100 μM compound",0% competition
same,melting point,,235 to 238 °C
CC/C(=C(\c1ccc(O)cc1)c1ccc(OCCNC)cc1)c1ccccc1 [Endoxifen],PGR mRNA expression level in the presence of 10 nM E2,[1],10%
CC(C)(C#N)c1cc(Cn2cncn2)cc(C(C)(C)C#N)c1 [anastrozole],improvement of disease-free survival compared to tamoxifen,[3],13%
same,reduction in occurrence of contralateral breast cancer compared to tamoxifen,[3],42%
same,reduction in risk of distant metastasis compared to tamoxifen,[3],16%
same,reduction in the rate of recurrence compared to tamoxifen,[3],21%
